Experimental data reported in ChEMBL document CHEMBL1201862, “PubChem BioAssay data set” (2004).
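Results reflect a 48-hour exposure of cells in 96-well plates to compound at five concentrations. At the GI50, growth is halved.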 The source made the active and inactive calls. Cut-off read from the data, not from the text of the source: active = GI50 up to about 1.1 µM and inactive = higher.

Legend:
Assay in all cases: inhibition of tumour cell growth, NCI panel, 48 h
SR = system: SR
NCI-H460 = system: NCI-H460
NCI-H226 = system: NCI-H226
TK-10 = system: TK-10
DU-145 = system: DU-145
U-251 = system: U-251
MCF7 = system: MCF7
CCRF-CEM = system: CCRF-CEM
SK-MEL-5 = system: SK-MEL-5
SF-268 = system: SF-268
NCI-H522 = system: NCI-H522
NCI/ADR-RES = system: NCI/ADR-RES
HCC 2998 = system: HCC 2998
UO-31 = system: UO-31
A498 = system: A498
OVCAR-3 = system: OVCAR-3
UACC-257 = system: UACC-257
T47D = system: T47D
HT-29 = system: HT-29
Hs-578T = system: Hs-578T
MOLT-4 = system: MOLT-4
K562 = system: K562
ACHN = system: ACHN
RPMI-8226 = system: RPMI-8226
MDA-N = system: MDA-N
786-0 = system: 786-0
SF-539 = system: SF-539
OVCAR-8 = system: OVCAR-8
OVCAR-4 = system: OVCAR-4
HCT-116 = system: HCT-116
Malme-3M = system: Malme-3M
SK-MEL-2 = system: SK-MEL-2
UACC-62 = system: UACC-62
SNB-75 = system: SNB-75
BT-549 = system: BT-549
RXF 393 = system: RXF 393
HL-60 = system: HL-60
M14 = system: M14
COLO 205 = system: COLO 205
OVCAR-5 = system: OVCAR-5
SK-OV-3 = system: SK-OV-3
MDA-MB-435 = system: MDA-MB-435
A549 = system: A549
HOP-62 = system: HOP-62
SN12C = system: SN12C
IGROV-1 = system: IGROV-1
PC-3 = system: PC-3
SF-295 = system: SF-295
NCI-H23 = system: NCI-H23
EKVX = system: EKVX
SK-MEL-28 = system: SK-MEL-28
KM12 = system: KM12
MDA-MB-231 = system: MDA-MB-231
CAKI-1 = system: CAKI-1
HOP-92 = system: HOP-92
HCT-15 = system: HCT-15
SW-620 = system: SW-620
SNB-19 = system: SNB-19
LOX IMVI = system: LOX IMVI
SNB-78 = system: SNB-78
DMS-114 = system: DMS-114

Measured: GI50

COc1ccc(Oc2cnn(C(Br)(Br)C(C)=O)c(=O)c2Br)cc1
active: MOLT-4 0.861 µM
inactive: SR 1.69 µM | NCI-H460 18.8 µM | NCI-H226 21.4 µM | TK-10 13.5 µM | DU-145 19.2 µM | U-251 13.9 µM | MCF7 15.4 µM | CCRF-CEM 1.82 µM | SK-MEL-5 16 µM | SF-268 14.6 µM | NCI-H522 4.56 µM | NCI/ADR-RES 18.5 µM | HCC 2998 16.8 µM | UO-31 7.66 µM | A498 24.8 µM | OVCAR-3 4.19 µM | UACC-257 15.1 µM | T47D 18.5 µM | HT-29 15.3 µM | Hs-578T 26.1 µM | K562 3.85 µM | ACHN 13.6 µM | RPMI-8226 3.14 µM | MDA-N 10.3 µM | 786-0 13.9 µM | SF-539 12.4 µM | OVCAR-8 13.3 µM | OVCAR-4 17.4 µM | HCT-116 7 µM | Malme-3M 17.1 µM | SK-MEL-2 16.3 µM | UACC-62 15.7 µM | SNB-75 15 µM | BT-549 17.3 µM | RXF 393 6.08 µM | HL-60 1.97 µM | M14 13.9 µM | COLO 205 13.4 µM | OVCAR-5 17.7 µM | SK-OV-3 24.3 µM | MDA-MB-435 10 µM | A549 24 µM | HOP-62 16.7 µM | SN12C 15 µM | IGROV-1 18.5 µM | PC-3 14.1 µM | SF-295 18.2 µM | NCI-H23 17.9 µM | EKVX 17.1 µM | SK-MEL-28 16 µM | KM12 14.8 µM | MDA-MB-231 17.9 µM | CAKI-1 10.8 µM | HOP-92 14.7 µM | SW-620 4.56 µM | SNB-19 24.5 µM | LOX IMVI 11 µM
16 µM: HCT-15

COc1cc(C)cc2c1[nH]c1ccccc12 [MURRAYAFOLINE A]
inactive: TK-10 > 25 µM | OVCAR-3 8.91 µM | K562 > 25 µM | RPMI-8226 8.65 µM | OVCAR-8 7.33 µM | OVCAR-4 > 25 µM | SNB-78 > 25 µM | RXF 393 9.16 µM | OVCAR-5 24.5 µM | A549 11.5 µM | DMS-114 9.64 µM | HOP-62 6.53 µM | SNB-19 > 25 µM
